Experimental data from patent US20090156501A1, “IDENTIFICATION OF LIGANDS BY SELECTIVE AMPLIFICATION OF CELLS TRANSFECTED WITH RECEPTORS” (ACADIA PHARMACEUTICALS, INC., priority 1999, published 2009).
Where two headings read alike, the source gives them in different places.

What was measured:
Format in all cases: cell-based
FP prostanoid receptor = target: T1, FP prostanoid receptor (Homo sapiens, UniProt P43088); assay: Single Receptor Format amplification assay, prostanoid FP; conditions: 7-9 doses in duplicate; read-out: Ligand EC50 nM, FP
T1 construct: expressed in transfected cells; host or cells: NIH 3T3
T1 sequence (P43088 whole entry): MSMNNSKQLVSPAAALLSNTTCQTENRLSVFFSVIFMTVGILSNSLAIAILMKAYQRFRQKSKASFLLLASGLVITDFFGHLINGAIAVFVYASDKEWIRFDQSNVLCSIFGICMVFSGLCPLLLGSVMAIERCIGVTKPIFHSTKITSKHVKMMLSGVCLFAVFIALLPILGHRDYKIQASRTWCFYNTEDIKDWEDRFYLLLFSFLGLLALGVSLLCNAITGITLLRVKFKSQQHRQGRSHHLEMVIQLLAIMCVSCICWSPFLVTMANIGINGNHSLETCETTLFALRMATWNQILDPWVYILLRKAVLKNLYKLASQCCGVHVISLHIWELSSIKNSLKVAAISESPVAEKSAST
Source text: (§1) Receptors belonging to several functional categories have successfully been assayed using the general protocol for the Single Receptor Format described above. […] A diversity of signal transduction classes are also illustrated: G-protein coupled receptors, tyrosine kinase linked receptors, G-proteins and oncogenes. In a few of these cases, focus assays have been used to assay ligand interaction with the illustrated receptors.

EP3 prostanoid receptor = target: T2, EP3 prostanoid receptor (Homo sapiens, UniProt P43115); assay: Single Receptor Format amplification assay, prostanoid EP3; conditions: 7-9 doses in duplicate; read-out: Ligand EC50 nM, EP3
T2 construct: expressed in transfected cells; host or cells: NIH 3T3
T2 sequence (P43115 1-390): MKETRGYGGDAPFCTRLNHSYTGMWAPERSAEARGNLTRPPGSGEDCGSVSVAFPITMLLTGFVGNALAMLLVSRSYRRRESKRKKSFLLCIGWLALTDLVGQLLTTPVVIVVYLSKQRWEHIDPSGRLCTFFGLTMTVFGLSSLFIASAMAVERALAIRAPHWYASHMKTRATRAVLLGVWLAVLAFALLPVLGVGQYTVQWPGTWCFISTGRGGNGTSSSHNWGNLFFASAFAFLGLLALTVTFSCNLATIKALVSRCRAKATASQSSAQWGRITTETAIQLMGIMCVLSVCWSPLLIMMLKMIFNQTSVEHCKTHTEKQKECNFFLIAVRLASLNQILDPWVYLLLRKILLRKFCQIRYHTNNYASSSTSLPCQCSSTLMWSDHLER
Source text: as §1

m3 muscarinic receptor = target: T3, m3 muscarinic receptor (Homo sapiens, UniProt P20309); assay: Single Receptor Format amplification assay, β-galactosidase marker, NIH 3T3 cells transfected with m3; conditions: for EC50: β-gal amplification, mean ±SE of 2-4 experiments, read-out: Muscarinic Agonists EC50 [μM], m3
T3 construct: expressed in transfected cells; host or cells: NIH 3T3
T3 sequence (P20309 whole entry): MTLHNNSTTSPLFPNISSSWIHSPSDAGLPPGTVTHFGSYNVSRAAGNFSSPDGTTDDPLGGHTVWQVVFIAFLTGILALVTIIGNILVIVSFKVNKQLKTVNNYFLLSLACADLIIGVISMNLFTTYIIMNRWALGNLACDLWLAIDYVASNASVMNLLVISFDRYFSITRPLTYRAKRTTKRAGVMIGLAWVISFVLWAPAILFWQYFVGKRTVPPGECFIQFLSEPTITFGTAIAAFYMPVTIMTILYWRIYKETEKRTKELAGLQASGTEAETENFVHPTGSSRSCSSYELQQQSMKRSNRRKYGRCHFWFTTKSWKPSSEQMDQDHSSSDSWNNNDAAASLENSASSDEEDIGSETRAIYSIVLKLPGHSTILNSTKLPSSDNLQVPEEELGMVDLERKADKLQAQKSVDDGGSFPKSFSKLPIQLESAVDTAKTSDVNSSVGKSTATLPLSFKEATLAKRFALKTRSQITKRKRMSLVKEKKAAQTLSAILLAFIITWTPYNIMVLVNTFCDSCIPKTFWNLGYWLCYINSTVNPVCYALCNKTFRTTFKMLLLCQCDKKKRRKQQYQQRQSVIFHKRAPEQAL

m2 muscarinic receptor = target: T4, m2 muscarinic receptor (Homo sapiens, UniProt P08172); assay: Single Receptor Format amplification assay, β-galactosidase marker, NIH 3T3 cells transfected with m2 and Gq-i5
T4 construct: expressed in transfected cells; host or cells: NIH 3T3
T4 sequence (P08172 1-466): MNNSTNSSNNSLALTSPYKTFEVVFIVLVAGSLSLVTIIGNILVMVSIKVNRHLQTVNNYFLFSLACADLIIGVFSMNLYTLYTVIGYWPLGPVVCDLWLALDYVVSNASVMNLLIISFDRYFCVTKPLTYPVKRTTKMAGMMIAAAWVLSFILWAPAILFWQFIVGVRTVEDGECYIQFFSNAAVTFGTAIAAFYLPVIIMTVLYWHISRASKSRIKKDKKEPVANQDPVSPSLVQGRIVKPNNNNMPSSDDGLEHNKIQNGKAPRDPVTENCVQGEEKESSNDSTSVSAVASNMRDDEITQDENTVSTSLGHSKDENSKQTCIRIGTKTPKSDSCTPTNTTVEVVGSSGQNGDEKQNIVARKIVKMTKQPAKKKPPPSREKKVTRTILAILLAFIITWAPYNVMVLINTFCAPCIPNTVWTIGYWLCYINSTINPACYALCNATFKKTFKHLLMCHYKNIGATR

m5 muscarinic receptor = target: T5, m5 muscarinic receptor (Homo sapiens, UniProt P08912); assay: Single Receptor Format amplification assay, β-galactosidase marker, NIH 3T3 cells transfected with m5; conditions: for Muscarinic Agonists (% Max), m5: maximum response as % of carbachol response (carbachol 5 μM)
T5 construct: expressed in transfected cells; host or cells: NIH 3T3
T5 sequence (P08912 1-532): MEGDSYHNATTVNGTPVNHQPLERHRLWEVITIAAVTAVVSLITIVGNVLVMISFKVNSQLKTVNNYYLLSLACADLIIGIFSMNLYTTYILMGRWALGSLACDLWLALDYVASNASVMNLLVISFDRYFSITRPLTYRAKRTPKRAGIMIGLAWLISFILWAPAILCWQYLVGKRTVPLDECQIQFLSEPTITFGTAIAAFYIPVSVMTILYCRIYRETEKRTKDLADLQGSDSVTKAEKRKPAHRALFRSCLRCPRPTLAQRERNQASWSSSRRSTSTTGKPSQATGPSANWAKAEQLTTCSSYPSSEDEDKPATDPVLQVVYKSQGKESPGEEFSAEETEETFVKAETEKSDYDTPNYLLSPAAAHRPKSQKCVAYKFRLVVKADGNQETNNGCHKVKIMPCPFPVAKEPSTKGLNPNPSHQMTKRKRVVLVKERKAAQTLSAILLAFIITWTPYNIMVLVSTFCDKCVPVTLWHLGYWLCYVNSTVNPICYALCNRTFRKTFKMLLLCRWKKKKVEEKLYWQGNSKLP

m4 muscarinic receptor = target: T6, m4 muscarinic receptor (Homo sapiens, UniProt P08173); assay: Single Receptor Format amplification assay, β-galactosidase marker, NIH 3T3 cells transfected with m4 and chimeric G-protein; conditions: for EC50: cotransfected with Gqi5, mean ±SE of 2-4 experiments, read-out: Muscarinic Agonists EC50 [μM], m4
T6 construct: expressed in transfected cells; host or cells: NIH 3T3
T6 sequence (P08173 1-479): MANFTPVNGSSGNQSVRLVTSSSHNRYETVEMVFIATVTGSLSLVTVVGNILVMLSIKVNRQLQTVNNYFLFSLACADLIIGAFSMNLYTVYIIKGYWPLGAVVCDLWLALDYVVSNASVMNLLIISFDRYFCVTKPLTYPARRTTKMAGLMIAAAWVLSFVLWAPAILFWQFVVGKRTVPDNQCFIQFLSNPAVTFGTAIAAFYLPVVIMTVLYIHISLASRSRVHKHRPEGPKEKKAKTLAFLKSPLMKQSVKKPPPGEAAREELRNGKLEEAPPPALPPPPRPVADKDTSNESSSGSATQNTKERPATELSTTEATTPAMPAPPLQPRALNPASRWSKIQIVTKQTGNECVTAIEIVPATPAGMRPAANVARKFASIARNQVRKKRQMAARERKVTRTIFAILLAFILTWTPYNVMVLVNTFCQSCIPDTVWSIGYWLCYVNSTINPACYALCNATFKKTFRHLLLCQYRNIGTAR

m1 muscarinic receptor = target: T7, m1 muscarinic receptor (Homo sapiens, UniProt P11229); assay: Single Receptor Format amplification assay, β-galactosidase marker, NIH 3T3 cells transfected with m1
T7 construct: expressed in transfected cells; host or cells: NIH 3T3
T7 sequence (P11229 1-460): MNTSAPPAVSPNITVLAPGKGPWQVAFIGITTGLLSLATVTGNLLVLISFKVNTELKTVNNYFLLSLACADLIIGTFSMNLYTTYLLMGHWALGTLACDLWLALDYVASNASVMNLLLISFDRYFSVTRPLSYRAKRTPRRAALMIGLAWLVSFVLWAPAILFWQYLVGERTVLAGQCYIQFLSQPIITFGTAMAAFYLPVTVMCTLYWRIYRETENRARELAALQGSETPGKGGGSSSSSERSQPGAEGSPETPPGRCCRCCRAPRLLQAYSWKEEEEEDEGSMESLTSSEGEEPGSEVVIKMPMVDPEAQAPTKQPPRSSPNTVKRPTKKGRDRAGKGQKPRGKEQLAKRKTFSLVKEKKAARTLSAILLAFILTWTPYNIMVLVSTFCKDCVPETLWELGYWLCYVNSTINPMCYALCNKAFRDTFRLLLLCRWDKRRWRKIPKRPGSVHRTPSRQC

trk C receptor = target: T8, trk C receptor (Homo sapiens, UniProt Q16288); assay: Single Receptor Format amplification assay, trk C
T8 construct: expressed in transfected cells; host or cells: NIH 3T3
Source text: Also illustrated is the dose-response relationships of the related neutrotrophic factor NT3.
as §1

trk A receptor = target: T9, trk A receptor (Homo sapiens, UniProt P04629); assay: Single Receptor Format amplification assay, trk A; conditions: 7-9 doses in duplicate
T9 construct: expressed in transfected cells; host or cells: NIH 3T3
T9 sequence (P04629 33-790 isoform P04629-2 limits assumed): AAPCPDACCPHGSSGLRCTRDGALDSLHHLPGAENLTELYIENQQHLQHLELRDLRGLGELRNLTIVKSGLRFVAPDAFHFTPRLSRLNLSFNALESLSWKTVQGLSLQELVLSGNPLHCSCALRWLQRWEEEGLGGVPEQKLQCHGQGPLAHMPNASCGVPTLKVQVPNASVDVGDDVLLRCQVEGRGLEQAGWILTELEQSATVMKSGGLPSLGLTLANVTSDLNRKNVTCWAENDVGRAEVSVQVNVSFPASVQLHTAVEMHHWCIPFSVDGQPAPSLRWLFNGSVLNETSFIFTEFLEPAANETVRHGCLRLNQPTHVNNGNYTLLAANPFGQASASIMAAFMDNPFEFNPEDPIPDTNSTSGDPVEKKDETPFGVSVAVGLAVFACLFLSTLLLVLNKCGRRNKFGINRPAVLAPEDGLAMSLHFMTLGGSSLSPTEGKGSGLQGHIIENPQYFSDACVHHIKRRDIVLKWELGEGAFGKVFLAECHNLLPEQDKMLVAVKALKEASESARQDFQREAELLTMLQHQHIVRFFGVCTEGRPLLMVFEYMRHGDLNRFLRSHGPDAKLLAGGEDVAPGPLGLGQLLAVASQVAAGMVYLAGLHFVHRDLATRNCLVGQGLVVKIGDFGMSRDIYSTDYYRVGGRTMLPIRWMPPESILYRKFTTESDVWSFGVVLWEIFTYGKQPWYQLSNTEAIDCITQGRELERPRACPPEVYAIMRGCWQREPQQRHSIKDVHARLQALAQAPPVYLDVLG

[1] = maximum response as % of carbachol response (carbachol 10 μM), Gqi5

For `O=C(O)CCC/C=C\C[C@@H]1[C@@H](/C=C/[C@@H](O)COc2cccc(C(F)(F)F)c2)[C@H](O)C[C@@H]1O` (racemic) [Fluprostenol], the EC50 (FP prostanoid receptor) was 2 ± 1 nM.

In the case of `O=C(O)CCCCCC[C@H]1C(=O)CC[C@@H]1/C=C/[C@@H](O)COc1ccccc1` [MB28767], the EC50 (EP3 prostanoid receptor) is reported as 270 ± 190 nM.

With `C[N+](C)(C)CC#CCOC(=O)Nc1cccc(Cl)c1.[Cl-]` [McN A-434] the “Muscarinic Agonists (% Max), m3” value (m3 muscarinic receptor; maximum response as % of carbachol response (carbachol 100 μM)) was “(38 ± 2) %”, the EC50 (m3 muscarinic receptor) was 2.2 µM and the EC50 (m2 muscarinic receptor; cotransfected with Gqi5, mean ±SE of 2-4 experiments, read-out: Muscarinic Agonists EC50 [μM], m2) was 1.5 ± 0.6 µM. For the same compound, the “Muscarinic Agonists (% Max), m2” value (m2 muscarinic receptor; [1]) was “(108 ± 7) %”, the “Muscarinic Agonists (% Max), m5” value (m5 muscarinic receptor) was “(57 ± 4) %” and the EC50 (m5 muscarinic receptor; β-gal amplification, mean ±SE of 2-4 experiments, read-out: Muscarinic Agonists EC50 [μM], m5) was 1 ± 0.3 µM. For the same compound, the EC50 (m4 muscarinic receptor) was 0.12 ± 0.02 µM, the “Muscarinic Agonists (% Max), m4” value (m4 muscarinic receptor; [1]) was “(84 ± 3) %” and the “Muscarinic Agonists (% Max), m1” value (m1 muscarinic receptor; maximum response as % of carbachol response (carbachol 200 μM)) was “(43 ± 2) %”. For the same compound, the EC50 (m1 muscarinic receptor; β-gal amplification, mean ±SE of 2-4 experiments, read-out: Muscarinic Agonists EC50 [μM], m1) was 1.1 ± 0.2 µM.

For `C[N+](C)(C)CCOC(N)=O` [carbachol], the “Muscarinic Agonists (% Max), m2” value (m2 muscarinic receptor; [1]) was “(100) %”, the “Muscarinic Agonists (% Max), m5” value (m5 muscarinic receptor) was “(100) %” and the “Muscarinic Agonists (% Max), m4” value (m4 muscarinic receptor; [1]) was “(100) %”.

With `C[C@@H]1O[C@H](C[N+](C)(C)C)C[C@H]1O` [muscarine] the “Muscarinic Agonists (% Max), m3” value (m3 muscarinic receptor) was “(84 ± 6) %”, the EC50 (m3 muscarinic receptor) was 0.56 ± 0.25 µM and the “Muscarinic Agonists (% Max), m2” value (m2 muscarinic receptor) was “(76 ± 1) %”. For the same compound, the EC50 (m5 muscarinic receptor) was 0.39 ± 0.18 µM, the “Muscarinic Agonists (% Max), m5” value (m5 muscarinic receptor) was “(86 ± 0) %” and the “Muscarinic Agonists (% Max), m4” value (m4 muscarinic receptor) was “(69 ± 2) %”. The EC50 (m4 muscarinic receptor) was 0.32 ± 0.15 µM and the “Muscarinic Agonists (% Max), m1” value (m1 muscarinic receptor) was “(84 ± 4) %”.

With `O=C1CCCN1CC#CCN1CCCC1` [oxotremorine] the “Muscarinic Agonists (% Max), m3” value (m3 muscarinic receptor) was “(66 ± 5) %”, the “Muscarinic Agonists (% Max), m2” value (m2 muscarinic receptor) was “(100 ± 5) %” and the “Muscarinic Agonists (% Max), m5” value (m5 muscarinic receptor) was “(74 ± 2) %”. For the same compound, the “Muscarinic Agonists (% Max), m4” value (m4 muscarinic receptor) was “(102 ± 3) %” and the “Muscarinic Agonists (% Max), m1” value (m1 muscarinic receptor) was “(75 ± 10) %”.

In the case of “NGF: Nerve growth factor (NGF) is an agonist for the trk A receptor”, the “amplification response in cells transfected with trk C” value (trk C receptor; data not shown) is reported as “not able to induce amplification responses”.

In the case of NT3: related neutrotrophic factor NT3, the “Ligand EC50, trk A” value (trk A receptor) is reported as >1 µg/mL and the “Ligand EC50, trk C” value (trk C receptor; 7-9 doses in duplicate) is reported as 0.0024 ± 0.0011 µg/mL.
